Some results are limits rather than exact numbers.

A word on the melting point: it is the temperature, or range, at which the solid turns liquid.

On to `COc1ccc(Cc2nc(N(C)CCO)c3c(C)c(C#N)sc3n2)cc1OC`, for which the melting point is 62 to 63 °C.
As for `CCOC(=O)C(C(=O)OCC)c1cccc(C(=O)c2ccc(Cl)cc2)c1[N+](=O)[O-]`, the figure is 96 to 100 °C; as for `CCn1nc(C(=O)OCc2ccccc2)cc(Nc2cnccc2C)c1=O`, 137 to 138 °C.
`CCONC(CC)=C1C(=O)OC(CC)=C(Br)C1=O`: the melting point fell in the range of 76.5 to 77.5 °C.
In turn, `COc1cc(C(C)=O)c(OC)cc1C` displayed a melting point of 75 to 77 °C.
The value for `CCN(CC)C(=O)CNC1(c2ccccc2Cl)C(=O)Nc2ccc(Cl)cc21` (centres undefined) was 223 °C; that for `CCCCOc1nc(N)c2[nH]c(=O)n(CCCNc3cccc(CC(=O)O)c3)c2n1` was 247 °C; that for `CCCCNC(=O)NS(=O)(=O)c1cccc(C(=O)OC)c1I` was 163 to 167 °C.
The value for `COc1cc(/C=C/C=C/CO)ccc1OCc1nc(-c2ccccc2)oc1C` was 149 to 151 °C.
The value for `c1ccc(CNc2nccc3[nH]cnc23)cc1` was 60 to 64 °C; that for `Cc1ccnc(N2CCN(CCCCC3Sc4ccccc4NC3=S)CC2)c1` (centres undefined) was 119 °C.
`CC(C=CC=C(C)c1cc2c(s1)C(C)(C)CCC2(C)C)=CC(=O)O` gave a melting point of 226 to 228 °C.
As for `CCOC(=O)c1cc(NS(=O)(=O)c2cccnc2)ccc1Oc1cncc(Cl)c1`, the figure is 120 to 122 °C; as for `COc1ccccc1-c1cc(NC(=O)[C@H]2CCCNC2)ncn1`, 163 to 165 °C.
As for `CC(C)(O)c1ccc(CCl)cc1`, the figure is 101 to 103 °C; as for `O=[N+]([O-])c1ccc(Nc2cccc(-n3cccc3)c2)c([N+](=O)[O-])c1`, 116 to 118 °C.
The value for `Cc1cc2c3c(ccc2cc1C(=O)c1ccc(Cl)cc1)OC(=O)C3(C)C` was 130 to 132 °C; that for `COc1ccc(-c2nn(Cc3ccccc3)c(=O)c3ccccc23)c(O)c1OC` was 155 to 156 °C.
Molecule `CC(C)C[C@H](NC(=O)OC(C)(C)C)C(=O)N[C@@H](C(C)C)[C@@H](O)c1c(-c2ccccc2)c1=O` showed a melting point of 158 to 161 °C.
Turning to `CCC(=O)N1Cc2cc(OC)ccc2C(Cc2c(Cl)cncc2Cl)=N1`, the melting point fell in the range of 195 to 197 °C.
As for `O=[N+]([O-])c1ccc(-c2oncc2CO)cc1`, the figure is 170 to 171 °C; as for `CSc1cc(Oc2cccc(C(F)(F)F)c2)nc(C(=O)NN)c1`, 149 to 151 °C.
The value for `O=C(Nc1ccc(Br)cc1-c1noc(=O)[nH]1)c1cccc(S(=O)(=O)N2CCOCC2)c1` was 220 to 223 °C; that for `CCCC1(CC(=O)O)OCCc2c1[nH]c1c(F)ccc(C(=O)N3CCOCC3)c21` (centres undefined) was 98 to 100 °C; that for `CCc1cn2ccccc2c1S(=O)(=O)c1ccc(OCCCn2ccnc2)cc1` was 130 to 131 °C.
The value for `CCn1cc(C(=O)O)c(=O)c2ccc(N3CCN(c4ncccn4)CC3)c(OC(F)F)c21` was more than 300 °C; that for `COC(=O)C1=C(C)NC(C)=C(C(=O)OCC=Cc2ccccc2)C1c1cccc([N+](=O)[O-])c1` (centres undefined) was 143 to 144 °C.
Take `OCc1c(Cl)c(Cl)c(Cl)c(Cl)c1Cl`: the melting point is 195 to 196 °C.
The molecule `COc1cc(OC)c2c(=O)cc(-c3ccc(N(C)C)cc3)oc2c1C1=CCN(C)CC1` registered a melting point of 148 to 150 °C.
As for `Cc1nc(C(O)COc2ccc(CC3SC(=O)NC3=O)cc2)c(C)o1` (centres undefined), the figure is 223 to 224 °C; as for `O=C(O)c1ccc(NC(=O)c2ccc(F)cc2)cc1`, more than 300 °C; as for `CCC(=C(c1ccc(O)cc1)c1ccc(O)cc1)c1ccc(/C=C/C(=O)O)cc1`, 280 to 281 °C.
The value for `CSc1nccc(C)c1NC(=O)CCCCCCCCSc1nc2ccccc2o1` was 91 to 92 °C.
`CC(C)N(C)c1ncc([N+](=O)[O-])cc1Cl` displayed a melting point of 56 to 57 °C.
The value for `CNC(=O)Nc1ccc(Oc2ccc3sncc3c2)cc1` was 178 °C; that for `O=C(Br)c1ccc(F)c(Br)c1` was 34.8 to 35.8 °C; that for `NC(=NCC(F)(F)F)Nc1nc(CCCCNc2ncccn2)cs1` was 173 to 175 °C.
As for `Cc1ccc2sc(-c3ccccc3)c(N(C)C)c2c1`, the figure is 89 to 92 °C; as for `Nc1nc(/C(=N/OCC(=O)OC(c2ccccc2)c2ccccc2)C(=O)O)cs1`, 125 °C.
As for `COc1ccc(-c2cccc3[nH]c4c(c23)CCN(Cc2ccccc2)CC4)c(C)c1`, the figure is 177 to 178 °C.
`Fc1ccc(-c2ncn(C3CCNCC3)c2-c2ccnc(Oc3cccc(F)c3)n2)cc1` came in with a melting point of 155 to 156 °C.
As for `CC(C)(C)NC(=S)Nc1cc(F)cc(F)c1`, the figure is 140 to 142 °C; as for `Oc1ccc(-c2nc3cc(O)cc(-c4ccccc4)c3o2)cc1`, 92 °C.
As for `CS(=O)(=O)Oc1ccc2c(c1)C1(CCCC1)CO2`, the figure is 75 to 77 °C.
As for `CCOc1ccc(C2(C(=O)O)CC2(C)C)cc1` (centres undefined), the figure is 104 to 105 °C; as for `COc1cccc(C=C2SC(=S)N(CC(=O)O)C2=O)c1-c1cc2c(cc1C)C(C)(C)CCC2(C)C`, 149 °C; as for `CS(=O)(=O)c1ccc(-n2nc(C=O)cc2-c2ccccc2)cc1`, 133 to 136 °C.
The molecule `CCOC(=O)CC[C@H](NC(=O)c1ccc(N)c(F)c1)C(=O)OCC` gave a melting point of 92 to 97 °C.
As for `Cc1cccc2nc(C(C)Nc3ncnc4c3ncn4COCC[Si](C)(C)C)n(-c3cccc(C(N)=O)c3)c(=O)c12` (centres undefined), the figure is 195 to 197 °C; as for `CSC(NCCSCc1[nH]cnc1C)=C(C#N)C(N)=O`, 137 to 139 °C.
With `CC(CC(=O)O)c1ccc(-c2ccccc2F)cc1` (centres undefined), the melting point lay within 87 to 88 °C.
`COc1ccc(Cc2oc3c(c2C)C(=O)C(C)=C(C)C3=O)cc1`: the melting point lay within 111 to 113 °C.
The value for `CC(=O)NC[C@H]1CN(c2cc(F)c(N3CCC(Cc4noc(C)n4)CC3)c(F)c2)C(=O)O1` was 134 to 136 °C.
As for `O=C(NNS(=O)(=O)c1ccccc1)c1cc2cccc(Cl)c2o1`, the figure is 179 to 180 °C; as for `CC(Cc1c[nH]c2ccccc12)(NC(=O)OC1C2CC3CC(C2)CC1C3)C(=O)NCC(CCC(=O)O)c1ccccc1` (centres undefined), 117 to 122 °C; as for `Cc1ccc(-c2cc[nH]c2CC[N+](=O)[O-])cc1`, 81 to 82 °C.
The value for `O=C1N(c2ccc(I)cc2)CCCC1(Cl)Cl` was 153 to 155 °C; that for `O=C1NCCc2c(-c3cccc(-c4ccccc4)c3)[nH]c3cccc1c23` was 160 to 163 °C.
Molecule `C[Si](C)(C)c1ccc(-c2ccc(Br)cc2F)c(F)c1F` registered a melting point of 78 °C.
The value for `CN(C)CC1(C2(O)CCCCC2)Cc2cc3c(cc21)N(C)CC3` (centres undefined) was 121 to 124 °C; that for `CC(=O)NCc1ncc(-n2nc(C)cc2C)nc1Nc1ccc(Cl)cc1` was 228 to 230 °C.
Regarding `Cc1nc2cnc(N3CCN(CCCC(=O)c4ccc(F)cc4)CC3)cc2[nH]1`, the melting point is 180 to 183 °C.
The value for `O=[N+]([O-])c1ccc(C2=NCCCN2)cc1` was 168 to 172 °C.
The value for `CCOC(=O)Cc1c(C)nn(-c2ccccn2)c1-c1ccccc1` was 89 to 90 °C.
